In US9963674B2, “Age-modified cells and methods for making age-modified cells” (Memorial Sloan-Kettering Cancer Center, priority 2013, dated 2018):

Key:
[1] = tested on: iPSC-derived mDA neurons; test: mDA neuron marker expression (NURR1, TH) as sign of acute toxicity; format: cell-based, human
Method: Cells were fixed in 4% paraformaldehyde for 15 minutes. Blocking was performed in phosphate-buffered saline supplemented with 1% BSA, and 0.3% Triton X-100 for 30 minutes to 1 hour. Cells were stained overnight at 4° C. with primary antibodies diluted in blocking buffer. Following several washes, cells were stained with appropriate Alexa Fluor-labeled secondary antibodies (Molecular Probes, Carlsbad, Calif.) at 1:500 in blocking buffer for 30 minutes to 3 hours at room temperature. Cells were counterstained with 4′,6-diamidino-2-phenylindole (DAPI; Thermo Fisher, Rockford, Ill.) to visualize nuclei. Images were acquired with an Olympus IX81 microscope using a Hamamatsu ORCA CCD camera.
Cells were collected with a cell lifter (Corning, Tewksbury, Mass.) in ice-cold phosphate-buffered saline without calcium or magnesium (PBS−/−). Cell pellets were rapidly frozen on ethanol and dry ice and stored at −80° C. Cell pellets were thawed on ice and resuspended in 50-200 μl RIPA lysis buffer (50 mM Tris-HCl pH 8.0, 120 mM NaCl, 6 mM EDTA, 0.5% NP-40) with 1% sodium dodecyl sulfate (SDS). Cell suspensions were vortexed at 15-minute intervals during a 45-minute incubation on ice. Lysates were isolated following a 10,000 rpm spin for 10 minutes at 4° C. 20-40 μg samples were further diluted with 4× Laemmli sample buffer, boiled for 5 minutes at 95° C., and loaded onto a NuPAGE 4-12% Bis-Tris precast gel (Life Technologies). Gel electrophoresis was performed at 100 V for 2 hours. Gels were transferred to a methanol activated PVDF membrane using the XCell II Blot Module (Life Technologies) according to the manufacturer's instructions. Blots were blocked in 3% bovine serum albumin (BSA) in Tris buffered saline plus 0.1% Tween-20 (TBS-T) for 45 minutes at room temperature. […]
Following several washes with TBS-T, blots were incubated in appropriate HRP-labeled secondary antibodies (Jackson ImmunoResearch, West Grove, Pa.) for 1 hour at room temperature. […] Densitometry quantification was performed using ImageJ on blots from three independent experiments.

[2] = tested on: iPSC-derived mDA neurons; test: RNA-seq gene expression analysis of iPSC-derived mDA neurons; format: cell-based, human; conditions: progerin vs nuclear-GFP
Method: Cells were lysed directly in Trizol (Life Technologies). RNA was extracted using chloroform and ethanol precipitation and further cleaned using the RNeasy kit (Qiagen). Samples were stored at −80° C. until further processing. Total RNA was reverse transcribed (Superscript, Life Technologies) and 50 ng of RNA was used to template each RT-PCR reaction. For analysis of progerin expression levels, total RNA was hydrolyzed by 0.1× volume 5 M NaOH for 30 minutes at room temperature followed by 0.1× volume 5 M HCl (Scaffidi et al., Science 312:1059-1063 (2006)). Quantitative RT-PCR was performed using the Mastercycler RealPlex2 (Eppendorf, Hauppauge, N.Y.) platform following the manufacturer's instructions. Expression levels were normalized to cyclophillin A or 18S (housekeeping gene controls) as noted. For RNA-seq, total RNA was isolated from two independent experiments and processed by the MSKCC Genomic core facility.
Paired-end 75 base pair RNA-sequencing libraries were sequenced on an Illumina HiSeq2000. Reads were mapped to the human genome (Hg19) using STAR 2.3.0e (Dobin et al., Bioinformatics 29:15-21 (2013) with default mapping parameters and read counts were assessed using HTSeq. Principal component analysis was completed in R (v2.15.2) using the base “stats” package. Differentially expressed genes were identified with limma voom (Smyth, Stat Appl Genet Mol Biol 3:Article3 (2004)). A conservative approach was taken to account for low coverage in the sequencing library; a low read count filter was used such that samples contained non-zero read counts for a gene to be assessed in limma. Differentially expressed genes were identified using a fold change cut off of +/−2 and a Bonferroni adjusted p value of 0.05. A hypergeometric test was used to assess the similarity in response to progerin overexpression in young donor and old donor iPSC-derived mDA neurons. […]

Substance: GFP-progerin: progerin (truncated lamin A) fused to GFP, SEQ ID No. 2, overexpressed via modified-RNA or hSyn lentivirus
- mDA neuron markers NURR1 and TH ([1]; PD- and control-iPSC-derived mDA neurons, day 65, 5 days): unchanged
- percentages of iPSC-derived neurons expressing NURR1 and TH ([1]; young and old donor iPSC-derived mDA neurons): remained unchanged
- BCAS1 expression [2]: downregulation
- SIRT4 expression [2]: downregulation
- ZNHT3 expression [2]: upregulation
